From ChEMBL document CHEMBL1201862, “PubChem BioAssay data set” (2004)
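Each compound was tested at five concentrations against cells in 96-well plates for 48 hours. GI50 marks 50% less growth.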 The source made the active and inactive calls. Rule as the data show it: active = GI50 up to about 1.1 µM and inactive = higher.

Assays:
Assay in all cases: NCI-60 cell line screen, 48 h
CAKI-1 = system: CAKI-1
MOLT-4 = system: MOLT-4
UACC-257 = system: UACC-257
OVCAR-4 = system: OVCAR-4
HL-60 = system: HL-60
U-251 = system: U-251
LOX IMVI = system: LOX IMVI
OVCAR-5 = system: OVCAR-5
NCI-H226 = system: NCI-H226
SK-MEL-5 = system: SK-MEL-5
UACC-62 = system: UACC-62
HCT-15 = system: HCT-15
SK-MEL-2 = system: SK-MEL-2
SF-268 = system: SF-268
TK-10 = system: TK-10
RPMI-8226 = system: RPMI-8226
HT-29 = system: HT-29
SNB-78 = system: SNB-78
SNB-19 = system: SNB-19
A498 = system: A498
SK-MEL-28 = system: SK-MEL-28
SW-620 = system: SW-620
A549 = system: A549
LXFL 529 = system: LXFL 529
NCI-H522 = system: NCI-H522
DMS-114 = system: DMS-114
Malme-3M = system: Malme-3M
NCI-H23 = system: NCI-H23
COLO 205 = system: COLO 205
RXF 393 = system: RXF 393
HCT-116 = system: HCT-116
HOP-62 = system: HOP-62
XF498 = system: XF498
ACHN = system: ACHN
SF-295 = system: SF-295
786-0 = system: 786-0
SF-539 = system: SF-539
DMS-273 = system: DMS-273
SN12C = system: SN12C
HCC 2998 = system: HCC 2998
HOP-92 = system: HOP-92
CCRF-CEM = system: CCRF-CEM
KM12 = system: KM12
M19-MEL = system: M19-MEL
SNB-75 = system: SNB-75
OVCAR-3 = system: OVCAR-3
UO-31 = system: UO-31
M14 = system: M14
KM-20L2 = system: KM-20L2
K562 = system: K562
EKVX = system: EKVX
OVCAR-8 = system: OVCAR-8
IGROV-1 = system: IGROV-1
DLD-1 = system: DLD-1
HOP-18 = system: HOP-18
NCI-H460 = system: NCI-H460
SR = system: SR
SK-OV-3 = system: SK-OV-3

## CC1(C)C(c2ccccc2)C12CCC1(C2=O)C(c2ccccc2)C1(C)C (configuration not stated)
CAKI-1
  GI50: 23.1 µM (inactive)
MOLT-4
  GI50: 18.9 µM (inactive)
UACC-257
  GI50: 17.9 µM (inactive)
OVCAR-4
  GI50: 31.3 µM (inactive)
HL-60
  GI50: 20.1 µM (inactive)
U-251
  GI50: 17.8 µM (inactive)
LOX IMVI
  GI50: 20.2 µM (inactive)
OVCAR-5
  GI50: 24.7 µM (inactive)
NCI-H226
  GI50: 17.9 µM (inactive)
SK-MEL-5
  GI50: 18.7 µM (inactive)
UACC-62
  GI50: 32 µM (inactive)
HCT-15
  GI50: 24.2 µM
SK-MEL-2
  GI50: 19.7 µM (inactive)
SF-268
  GI50: 29.4 µM (inactive)
TK-10
  GI50: 34.5 µM (inactive)
RPMI-8226
  GI50: 14.3 µM (inactive)
HT-29
  GI50: 16.1 µM (inactive)
SNB-78
  GI50: 24.6 µM (inactive)
SNB-19
  GI50: 28.8 µM (inactive)
A498
  GI50: 34.6 µM (inactive)
SK-MEL-28
  GI50: 27.2 µM (inactive)
SW-620
  GI50: 21.7 µM (inactive)
A549
  GI50: 26.4 µM (inactive)
LXFL 529
  GI50: 31.5 µM (inactive)
NCI-H522
  GI50: 13.5 µM (inactive)
DMS-114
  GI50: 17.9 µM (inactive)
Malme-3M
  GI50: 26.7 µM (inactive)
NCI-H23
  GI50: 18.9 µM (inactive)
COLO 205
  GI50: 18.8 µM (inactive)
RXF 393
  GI50: 20.1 µM (inactive)
HCT-116
  GI50: 16.6 µM (inactive)
HOP-62
  GI50: 26.1 µM (inactive)
XF498
  GI50: 18.7 µM (inactive)
ACHN
  GI50: 19.6 µM (inactive)
SF-295
  GI50: 19.4 µM (inactive)
786-0
  GI50: 25.2 µM (inactive)
SF-539
  GI50: 26.8 µM (inactive)
DMS-273
  GI50: 22.1 µM (inactive)
SN12C
  GI50: 27.1 µM (inactive)
HCC 2998
  GI50: 18.4 µM (inactive)
HOP-92
  GI50: 11.7 µM (inactive)
CCRF-CEM
  GI50: 18.9 µM (inactive)
KM12
  GI50: > 10 µM (inactive)
M19-MEL
  GI50: 24.6 µM (inactive)
SNB-75
  GI50: 30.4 µM (inactive)
OVCAR-3
  GI50: 19.9 µM (inactive)
UO-31
  GI50: 19.9 µM (inactive)
M14
  GI50: 23.3 µM (inactive)
KM-20L2
  GI50: 20.3 µM (inactive)
K562
  GI50: 20 µM (inactive)
EKVX
  GI50: 25.1 µM (inactive)
OVCAR-8
  GI50: 34.1 µM (inactive)
IGROV-1
  GI50: 31.8 µM (inactive)

## CCCCCCCCCCCCCCCC(=O)OCCOCCOCCOCc1ccccc1
CAKI-1
  GI50: 80.7 µM (inactive)
UACC-257
  GI50: > 100 µM (inactive)
OVCAR-4
  GI50: > 100 µM (inactive)
U-251
  GI50: 41.6 µM (inactive)
LOX IMVI
  GI50: > 100 µM (inactive)
OVCAR-5
  GI50: > 100 µM (inactive)
NCI-H226
  GI50: > 100 µM (inactive)
SK-MEL-5
  GI50: > 100 µM (inactive)
UACC-62
  GI50: 36.1 µM (inactive)
SK-MEL-2
  GI50: > 100 µM (inactive)
SF-268
  GI50: 91 µM (inactive)
TK-10
  GI50: > 100 µM (inactive)
HT-29
  GI50: > 100 µM (inactive)
SNB-78
  GI50: > 100 µM (inactive)
SNB-19
  GI50: 63.8 µM (inactive)
A498
  GI50: > 100 µM (inactive)
SK-MEL-28
  GI50: > 100 µM (inactive)
SW-620
  GI50: > 100 µM (inactive)
A549
  GI50: > 100 µM (inactive)
Malme-3M
  GI50: > 100 µM (inactive)
NCI-H23
  GI50: > 100 µM (inactive)
COLO 205
  GI50: > 100 µM (inactive)
RXF 393
  GI50: > 100 µM (inactive)
HCT-116
  GI50: > 100 µM (inactive)
HOP-62
  GI50: > 100 µM (inactive)
XF498
  GI50: > 100 µM (inactive)
ACHN
  GI50: > 100 µM (inactive)
SF-295
  GI50: 26 µM (inactive)
786-0
  GI50: > 100 µM (inactive)
SF-539
  GI50: > 100 µM (inactive)
DMS-273
  GI50: > 100 µM (inactive)
SN12C
  GI50: > 100 µM (inactive)
DLD-1
  GI50: > 100 µM (inactive)
HOP-92
  GI50: 21.1 µM (inactive)
KM12
  GI50: > 100 µM (inactive)
M19-MEL
  GI50: > 100 µM (inactive)
SNB-75
  GI50: 65.3 µM (inactive)
OVCAR-3
  GI50: > 100 µM (inactive)
HOP-18
  GI50: 50.8 µM (inactive)
EKVX
  GI50: > 100 µM (inactive)
NCI-H460
  GI50: > 100 µM (inactive)
OVCAR-8
  GI50: > 100 µM (inactive)
IGROV-1
  GI50: > 100 µM (inactive)

## CC(Sc1ccccc1)C(CO)(CO)[N+](=O)[O-] (configuration not stated)
CAKI-1
  GI50: 17.9 µM (inactive)
MOLT-4
  GI50: 3.64 µM (inactive)
UACC-257
  GI50: 14 µM (inactive)
OVCAR-4
  GI50: 17.8 µM (inactive)
HL-60
  GI50: 3.58 µM (inactive)
U-251
  GI50: 13.3 µM (inactive)
LOX IMVI
  GI50: 7.85 µM (inactive)
OVCAR-5
  GI50: 22.3 µM (inactive)
NCI-H226
  GI50: 16.5 µM (inactive)
SK-MEL-5
  GI50: 12.7 µM (inactive)
SR
  GI50: 2.34 µM (inactive)
UACC-62
  GI50: 15.8 µM (inactive)
HCT-15
  GI50: 11.5 µM
SK-MEL-2
  GI50: 18.2 µM (inactive)
SF-268
  GI50: 22.8 µM (inactive)
TK-10
  GI50: 18.9 µM (inactive)
RPMI-8226
  GI50: 18.9 µM (inactive)
HT-29
  GI50: 16.3 µM (inactive)
SNB-78
  GI50: 22.3 µM (inactive)
SNB-19
  GI50: 21.4 µM (inactive)
SW-620
  GI50: 14.4 µM (inactive)
A549
  GI50: 19.8 µM (inactive)
LXFL 529
  GI50: 13.7 µM (inactive)
NCI-H522
  GI50: 13.5 µM (inactive)
DMS-114
  GI50: 17.2 µM (inactive)
Malme-3M
  GI50: 18.9 µM (inactive)
NCI-H23
  GI50: 16.8 µM (inactive)
RXF 393
  GI50: 16.4 µM (inactive)
HCT-116
  GI50: 17.8 µM (inactive)
HOP-62
  GI50: 18.2 µM (inactive)
SK-OV-3
  GI50: 22.2 µM (inactive)
ACHN
  GI50: 16.9 µM (inactive)
SF-295
  GI50: 14.7 µM (inactive)
SF-539
  GI50: 16.7 µM (inactive)
DMS-273
  GI50: 16.7 µM (inactive)
SN12C
  GI50: 16.8 µM (inactive)
DLD-1
  GI50: 14.3 µM (inactive)
HCC 2998
  GI50: 17.2 µM (inactive)
CCRF-CEM
  GI50: 1.85 µM (inactive)
M19-MEL
  GI50: 16.4 µM (inactive)
SNB-75
  GI50: 20.5 µM (inactive)
OVCAR-3
  GI50: 15.2 µM (inactive)
UO-31
  GI50: 10.6 µM (inactive)
M14
  GI50: 16.9 µM (inactive)
KM-20L2
  GI50: 17.2 µM (inactive)
K562
  GI50: 11.2 µM (inactive)
HOP-18
  GI50: 21.9 µM (inactive)
EKVX
  GI50: 18.2 µM (inactive)
NCI-H460
  GI50: 22.8 µM (inactive)
OVCAR-8
  GI50: 14.8 µM (inactive)
IGROV-1
  GI50: 15.6 µM (inactive)
